The subject of assay [1] is non-mucoid and mucoid Pseudomonas aeruginosa. As to the kind of experiment: Bacterial growth in liquid LB medium and on LB-agar plates. It is filed as cell-based.
The subject of the next assay is IB3-1 CF cells. The assay can be described thus: SPQ halide fluorescence assay of Cl- efflux. Conditions: Na+- and Mg2+-free vehicle, 3 mM Ca2+, pH 7.9. In kind it is cell-based, human. The method, then: Modifications to this method involved the use of NaCl at the beginning and end of protocols. Agonists were tested in NMDGNO3-containing solution (as above for Ca^2+ assays).
In our modified saline vehicle that was devoid of Na+ and Mg^2+ and enriched in Ca^2+ (3 mM) along with modifications in the halides (Cl− substituted with iodide to quench the SPQ dye and nitrate to unquench), ATP plus zinc or zinc alone was added to IB3-1 CF cells and halide efflux was rescued in these cells. The effects were dependent upon an alkaline extracellular pH (pH 7.9) and the presence of extracellular Ca^2+. In essence, the rescue of Cl− transport (measured with a different halide in this case) was dependent upon the same chemical conditions as the zinc-induced Ca^2+ entry.

In assay [2] the test system is P2X receptor Ca^2+ entry channels. The assay can be described thus: Fura-2/AM fluorescence imaging of cytosolic Ca2+ in IB3-1 CF airway epithelial cells. In kind it is cell-based, human.
For another assay, the system named is calcium entry channels. The assay can be described thus: Fura-2 fluorescence ratio, sustained calcium entry signals in mammalian cells (FIG. 19C). In kind it is cell-based.
For assay [3], the system named is Cl− transport across the nasal mucosa. The assay can be described thus: In vivo nasal potential difference, rescue of Cl- secretion. The note with it: CF mice. Also on record: species or system mouse.
Assay [4] has as its target T1, ENaC (Mus musculus, UniProt Q61180+Q9WU38+Q9WU39).
T1 construct: from tissue; host or cells: nasal mucosa of living control, Cincinnati bitransgenic CF and delF508 CF mice
T1 sequence (Q61180 1-699): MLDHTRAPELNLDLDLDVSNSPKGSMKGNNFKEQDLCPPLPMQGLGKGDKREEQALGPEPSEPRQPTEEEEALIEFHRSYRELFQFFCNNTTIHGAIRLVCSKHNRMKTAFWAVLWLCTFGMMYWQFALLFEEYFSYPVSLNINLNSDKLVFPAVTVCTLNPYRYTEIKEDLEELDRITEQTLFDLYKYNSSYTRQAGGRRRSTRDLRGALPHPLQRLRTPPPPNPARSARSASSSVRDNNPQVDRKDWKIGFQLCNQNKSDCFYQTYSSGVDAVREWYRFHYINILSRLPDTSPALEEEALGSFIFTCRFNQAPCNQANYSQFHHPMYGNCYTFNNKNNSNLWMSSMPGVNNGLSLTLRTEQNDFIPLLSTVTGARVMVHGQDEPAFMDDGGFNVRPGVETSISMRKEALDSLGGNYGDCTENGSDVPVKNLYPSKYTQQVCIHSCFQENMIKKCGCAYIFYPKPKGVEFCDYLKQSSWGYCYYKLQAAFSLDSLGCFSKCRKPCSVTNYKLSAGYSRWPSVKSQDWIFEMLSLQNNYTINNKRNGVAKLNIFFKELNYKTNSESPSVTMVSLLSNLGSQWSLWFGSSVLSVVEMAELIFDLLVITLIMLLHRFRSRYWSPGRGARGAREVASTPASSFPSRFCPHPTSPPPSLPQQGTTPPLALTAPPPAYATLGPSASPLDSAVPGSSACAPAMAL
T1 sequence (Q9WU38 1-638): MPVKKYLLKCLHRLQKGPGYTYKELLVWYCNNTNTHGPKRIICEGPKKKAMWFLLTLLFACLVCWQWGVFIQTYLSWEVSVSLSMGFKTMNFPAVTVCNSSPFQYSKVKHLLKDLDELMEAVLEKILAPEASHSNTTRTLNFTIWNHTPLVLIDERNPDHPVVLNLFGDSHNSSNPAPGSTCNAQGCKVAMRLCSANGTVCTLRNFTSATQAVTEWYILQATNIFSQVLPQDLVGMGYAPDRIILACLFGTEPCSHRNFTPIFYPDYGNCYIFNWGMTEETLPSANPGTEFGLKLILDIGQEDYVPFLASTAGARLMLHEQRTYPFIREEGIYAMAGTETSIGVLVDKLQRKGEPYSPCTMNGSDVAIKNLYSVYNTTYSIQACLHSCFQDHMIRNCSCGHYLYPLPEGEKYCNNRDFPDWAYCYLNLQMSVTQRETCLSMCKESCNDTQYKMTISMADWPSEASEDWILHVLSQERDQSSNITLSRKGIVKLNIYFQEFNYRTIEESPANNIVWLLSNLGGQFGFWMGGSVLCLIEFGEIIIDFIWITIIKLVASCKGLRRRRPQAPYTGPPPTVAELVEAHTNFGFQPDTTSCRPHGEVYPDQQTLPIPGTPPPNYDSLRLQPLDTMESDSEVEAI
T1 sequence (Q9WU39 1-655): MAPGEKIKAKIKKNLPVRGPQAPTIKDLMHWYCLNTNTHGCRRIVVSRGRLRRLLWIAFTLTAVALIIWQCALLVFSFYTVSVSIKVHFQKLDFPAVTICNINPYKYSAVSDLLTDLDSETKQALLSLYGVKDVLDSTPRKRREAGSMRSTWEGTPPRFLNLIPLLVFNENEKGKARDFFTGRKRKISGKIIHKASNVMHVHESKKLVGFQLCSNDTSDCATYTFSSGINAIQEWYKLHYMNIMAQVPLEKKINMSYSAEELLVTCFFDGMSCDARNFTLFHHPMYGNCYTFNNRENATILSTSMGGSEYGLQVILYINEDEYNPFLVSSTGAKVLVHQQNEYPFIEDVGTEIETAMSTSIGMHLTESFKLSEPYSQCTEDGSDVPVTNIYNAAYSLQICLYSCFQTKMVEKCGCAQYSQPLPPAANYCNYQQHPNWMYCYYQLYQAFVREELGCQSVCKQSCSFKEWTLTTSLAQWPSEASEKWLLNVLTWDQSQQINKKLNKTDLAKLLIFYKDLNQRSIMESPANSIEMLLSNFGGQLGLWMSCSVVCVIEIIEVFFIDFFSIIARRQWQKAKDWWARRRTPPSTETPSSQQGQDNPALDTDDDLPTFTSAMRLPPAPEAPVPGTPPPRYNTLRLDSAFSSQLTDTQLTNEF
As to the kind of experiment: Ussing chamber / voltohmmeter recordings of ENaC-mediated Na+ absorption in airway and PKD collecting duct monolayers. In kind it is cell-based. Conditions: for concentrations required for inhibition in ISC recordings / doses inhibitory in PD assays: ARPKD sodium hyperabsorption; for doses inhibitory in PD assays: VTE/PD.

Assay [5] deals with T1, ENaC. The assay can be described thus: In vivo nasal potential difference, ENaC-mediated Na+ absorption.
The subject of a further assay is INS-1 cells. As to the kind of experiment: ELISA of insulin secretion from INS-1 cells. The note with it: 15 seconds to 120 minutes after stimulation. In kind it is cell-based, rat. (ELISA stands for enzyme-linked immunosorbent assay.)
The subject of assay [6] is INS-1 rat pancreatic β cells. The assay can be described thus: Fura-2 fluorescence assay of cell calcium in INS-1 cells. Conditions: Na+- and Mg2+-free Ringer, zinc alone 1-50 micromolar. It is filed as cell-based. Here is the method: Cytosolic Ca^2+ concentration was measured with dual excitation wavelength fluorescence microscopy (Deltascan, Photon Technologies, Princeton, N.J.) after cells were loaded with the permeant form of the fluorescence dye, Fura-2-acetoxymethyl ester (Fura-2-AM; Teflabs, Austin, Tex., USA). Fura-2 fluorescence was measured at an emission wavelength of 510 nm in response to excitation wavelength of 340 nm and 380 nm, alternated at a rate of 50 Hz by a computer-controlled chopper assembly. Ratios (340 nm/380 nm) were calculated at a […] using PTI software. Cells were incubated in Dulbecco's phosphate buffered saline containing 2 mM CaCl2 and 1 mM MgCl2 in the presence of 5 μM Fura2-AM and 1 mg/ml Pluronic F-127 dissolved in DMSO for 120 min to allow loading of the dye into the cells. After loading, coverslips were rinsed at least for 10 min in Dulbecco's phosphate buffered saline to remove extracellular Fura 2-AM and the surfactant, and were positioned in the cuvette at a 45° angle from the excitation light. […] Fluorescence intensities at both wavelengths were assessed and only those preparations in which there were >200,000 counts/s for both wavelengths were used for experiments. At the beginning of each experiment, cells were perfused with solution A (see below) and the fluorescence ratio was monitored for at least 100 sec to establish a stable baseline value. […]

Entries after “also recorded” stand apart in the source; their conditions may differ.

By IC50 is commonly meant the concentration at which inhibition is half-maximal.

With `O=S(=O)([O-])[O-].O=S(=O)([O-])[O-].O=S(=O)([O-])[O-].[Fe+3].[Fe+3]` [Ferric iron, ferric sulfate], the “growth, iron competition experiment” value in [1] is on record as “enhanced growth significantly”.
On to `[Cl-].[Cl-].[Zn+2]` [ZnCl2, zinc chloride], for which the “halide efflux / Cl- permeability in CF cells” value in the assay with IB3-1 CF cells is “restored Cl− permeability”.
`[Cu]` [copper]: the “effect on zinc effects (Ca2+ entry)” value in assay [2] is “competitively inhibit”.
As to `C[C@H](CCC(=O)O)C[C@H](C)C[C@H](C)C(=O)/C=C(\O)[C@H](C)C[C@H](C)C/C=C/[C@@H](C)[C@@H](O)[C@@H](C)[C@@H](O)C[C@@H]1CC[C@@](C)([C@H]2CC[C@@](C)([C@@H](C)O)O2)O1` [ionomycin], the “Fura-2 fluorescence ratio, sustained” value in the assay on calcium entry channels (ionomycin 2 μM) is given as 3.4.
In the case of `CC(C)NCC(O)c1ccc(O)c(O)c1` (centres unmarked) [isoproterenol], in assay [3], the “effect on nasal PD” value is recorded as “without effect”.
Consider `[Ni]` [nickel, reference compound], for which, at ENaC [4], the “concentrations required for inhibition in ISC recordings” value is “Millimolar” and the “doses inhibitory in PD assays” value was “mid-micromolar”.
As to `C/C=C(/C)C(=O)O[C@H]1C(C)=C2[C@H]([C@@H]1OC(=O)CCCCCCC)[C@@](C)(OC(C)=O)C[C@H](OC(=O)CCC)[C@@]1(O)[C@H]2OC(=O)[C@@]1(C)O` [thapsigargin], the “Fura-2 fluorescence ratio, transient peak (store-operated calcium channels)” value in the assay with calcium entry channels (thapsigargin 100 nM, ER store depletion and re-addition of extracellular calcium) is reported as 3.0. Moreover, the “effect on zinc-induced Ca2+ transients” value in [2] (thapsigargin pretreatment, Ca2+-free medium) is reported as “abolished”.
Regarding `[Zn+2]` [zinc], the “Fura-2 fluorescence ratio, sustained calcium entry” value in the assay on calcium entry channels (Na+ free conditions, pH 7.9) is reported as 2.1. The “concentrations required for inhibition in ISC recordings” value at ENaC [4] is “Millimolar”. The “doses inhibitory in PD assays” value at ENaC [4] is reported as “mid-micromolar”. In addition, the “concentration range inhibiting ENaC” value on ENaC [4] (Ussing chamber recordings) lay in the range of 50 to 100 µM. For the same compound, the “depolarization of NPD” value is roughly 10 mV on ENaC [5] (Cincinnati bitransgenic CF mouse); 3-4 mV on ENaC [5] (control mouse, NaCl-replete lactated Ringer); 6-7 mV at ENaC [5] (deIF508 CF mouse). In the assay with IB3-1 CF cells, the “halide efflux / Cl- permeability in CF cells” value is given as “rescued”. Besides, in assay [1] (read-out: IC50, bacterial growth inhibition), the IC50 was in the range of 1 to 5 mM. In addition, in [2] (Ca2+-free medium), the “zinc-induced increases in Ca2+” value is “small and transient”. The “insulin secretion versus glucose stimulus” value in the assay with INS-1 cells is reported as “even more potent stimulus than glucose”. The “effect on cell calcium / Ca2+ entry” value in assay [6] is on record as “further sustained increase in Ca^2+ entry; also recorded: small transient increase above the sustained plateau”.
In the case of ferrous sulfate, the “growth, iron competition experiment” value in assay [1] is reported as “inhibit”.
Regarding ivermectin, the “effect on zinc and/or ATP induced manganese or calcium entry” value in assay [2] (included with ATP and/or zinc, Fura-2 quenching and direct Fura-2 assays) is “potentiated”.

These data come from US7524517B2, “Methods and compositions for P2X receptor calcium entry channels and other calcium entry mechanisms” (UAB Research Foundation, priority 2003, dated 2009).
